Results from patent US20250213556A1, “COMBINATION THERAPY FOR TREATING CANCER” (AstraZeneca AB, priority 2022, published 2025).

Key:
[1] = test system: CWR22Pc-R1-AD1 cells; test: Cell proliferation assay and combination benefit calculation, CWR22Pc-R1-AD1; type: cell-based; details: 168 h, monotherapy, 7 days after treatment
Method: (§1) Cell line identification was validated using the CellCheck assay (IDEXX Bioanalytics, Westbrook, ME, USA). All cell lines were validated free of virus Mycoplasma contamination using the MycoSEQ assay (Thermo Fisher Scientific, Waltham, MA, USA) or STAT-Myco assay (IDEXX Bioanalytics). All cell lines were grown RPMI-1640 growth media (Corning 17-105-CV) supplemented with 10% fetal bovine serum (FBS) or, when indicated, 10% charcoal stripped FBS (ThermoFisher Scientific, 12676029) and 2 mM glutamine.
(§2) Cells in 384-well or 96-well plates were dosed using an Echo 555 (LabCyte, San Jose, CA, USA) or using the HP D300e Digital Dispenser (HP Life Science Dispensing), respectively.
(§3) Live cell count pre- and post-treatment (7 days after treatment) was determined using CellTiter-Glo as per manufacturer's instructions (Promega, Madison, WI, USA; G7570).
(§4) Cell viability was determined with the Sytox Green assay as described in Davies 2012 and the AC50 calculated. The HSA (Highest Single Agent) Synergy Score was calculated according to Bernenbaum 1989.

[2] = test system: VCAP cells; test: Cell proliferation assay and combination benefit calculation, VCAP; type: cell-based; details: Homo sapiens, 168 h, monotherapy, 7 days after treatment
Method: as §1, §2, §3, §4

[3] = test system: ATM-KO LNCAP cells; test: Cell proliferation assay and synergy in isogenic ATM-KO LNCAP cells; type: cell-based; details: monotherapy; for AC50: Homo sapiens, LNCaP
Method: as §2, §3, §4
An isogenic ATM-KO model in LNCAP cells was generated with CRISPR-Cas9 technology.
(§5) Using the method of example 1, these ATM-KO cell lines were determined to be sensitive to AZD5305, with an AC50 of 3 nM, in contrast to the parental (or control) LNCAP cell line which is not sensitive to AZD5305 monotherapy, with an AC50 greater than 10 μM.
(§6) The HSA (Highest Single Agent) Synergy Score was calculated according to Bernenbaum 1989 when the AZD5305 and enzalutamide were used in combination.

[4] = test system: LnCAP cells; test: Cell proliferation assay and combination benefit calculation, LnCAP; type: cell-based; details: Homo sapiens, monotherapy
Method: as §1, §2, §3, §4, §5, §6

[5] = test system: C901 tumours; test: In vivo pre-clinical model C901 patient derived xenograft (PDX); details: 21 days, NMRI Nude mice, vs vehicle
Method: C901 patient derived xenograft (PDX) model was engrafted subcutaneously onto the flank of donor mice and monitored once a week until ethical size (1000-2000 mm^3). When donor tumours reached ethical size, PDX fragments measuring approximately 20 mm^3 were engrafted in the study mice (male NMRI Nude mice, aged 6-9 weeks, supplied by Janvier labs).
The mice were dosed for 21 days, with the dose calculated for individual animals on day of dosing, and with a […] dosing volume.
Tumours were measured ×2 per week using digital calipers. The length and width of the tumour will be measured and volume calculated using the following formula: […]
The bodyweight of all mice in the study was measured and recorded 2 times per week; this information was used to calculate precise dosing for each animal.

[6] = test system: LNCaP tumours; test: In vivo pre-clinical model LNCaP (subcutaneous xenograft); details: 42 days, NOD SCID mice, vs vehicle
Method: LNCaP cells (1×10^7 cells 1:1 in Matrigel) were implanted subcutaneously onto the flank of male NOD SCID mice (aged 5-8 weeks weighing approximately 25-30 g, supplied by Charles River) using a 23-gauge needle.
The mice were dosed for 42 days, with the dose calculated for individual animals on day of dosing, and with a […] dosing volume.
Tumours were measured ×3 per week using digital calipers. The length and width of the tumour will be measured and volume calculated using the following formula: […]
The bodyweight of all mice in the study was measured and recorded 3 times per week; this information was used to calculate precise dosing for each animal.

[7] = test system: C4-2 cells; test: Cell proliferation assay and combination benefit calculation, C4-2; type: cell-based; details: 168 h, monotherapy, 7 days after treatment
Method: as §1, §2, §3, §4

[8] = 168 h, LnCAP, 7 days after treatment
[9] = LnCAP parental (control), Example 2

SMILES | AC50 [1] [µM] | AC50 [2] [µM] | AC50 ([3]; ATM-KO cell lines (clone.1 and clone.2)) [µM] | AC50 [4, 8] [µM] | AC50 [4, 9] [µM] | TGI ([5]; AZD5305 1 mg/kg QD) [%] | tumour growth inhibition (TGI) ([6]; AZD5305 1 mg/kg QD) | AC50 [7] [µM] | AC50 ([3]; LnAP-ATM-KO-CL.1) [µM] | Sensitivity of the cell lines ([3]; the cell lines of Example 2 (LNCAP parental and ATM-KO)) | TGI ([5]; enzalutamide 60 mg/kg QD) [%] | tumour growth inhibition (TGI) ([6]; enzalutamide 4 mg/kg QD)
CCc1cc2ncc(CN3CCN(c4ccc(C(=O)NC)nc4)CC3)cc2[nH]c1=O [AZD5305, 5-{4-[(7-ethyl-6-oxo-5,6-dihydro-1,5-naphthyridin-3-yl)methyl]piperazin-1-yl}-N-methylpyridine-2-carboxamide] | 0.0316 | 1.6 | 0.003 | 12 | > 10 | 90 | no or minimal (4%) | 20 |  |  |  | 
CNC(=O)c1ccc(N2C(=S)N(c3ccc(C#N)c(C(F)(F)F)c3)C(=O)C2(C)C)cc1F [Enzalutamide, 4-(3-(4-cyano-3-(trifluoromethyl)phenyl)-5,5-dimethyl-4-oxo-2-thioxoimidazolidin-1-yl)-2-fluoro-N-methylbenzamide] | 9.59 | 2.94 |  | 1.41 | > 10 |  |  | 8.33 | > 10 | No sensitivity could be measured | 92 | no or minimal (4%)
